Reference: patent US20260001892A1, “COMPOUND FOR REGULATING AND CONTROLLING ACTIVITY OF 15-PGDH AND PREPARATION METHOD THEREFOR” (SCINNOHUB PHARMACEUTICAL CO., LTD., priority 2022, published 2026)

What follows are molecules tested against 15-PGDH (Homo sapiens (Human), UniProt P15428) (assay: Detection of activity of 15-PGDH enzyme). Settings: inhibitory activity against 15-PGDH enzyme; substrates β-NAD and PGF2α; fluorescence Ex/Em=340/450.
Type: biochemical
Method: • a. A solution of pH 7.5 containing 50 mM Tris-HCl, 0.01% Tween 20 was prepared with ultrapure water as a reaction buffer; • b. A 10 mM mother liquor of the compound to be tested was prepared with DMSO, and then the reaction buffer was used to dilute the mother liquor of the compound to be tested to obtain solution 1 of the compound to be tested at a concentration of 40,000 nM, and then the solution 1 of the compound to be tested was serially diluted into solutions 2-9 (or 2-12) of the compound to be tested at 9 (or 11) concentrations with a gradient difference of three-fold. 5 μL of each concentration of solutions of the compound to be tested was respectively taken and added into a 384-well plate as test wells; • c. 5 μL of the reaction buffer was then added to the blank wells of the 384-well plate as positive control and blank control wells, respectively; • d. The reaction buffer was used to prepare a 15-PGDH protein solution at a concentration of 5 ng/μL, 5 μL of the 15-PGDH protein solution was taken and added to the test wells and positive control wells, and meanwhile 5 μL of the reaction buffer was added to the blank control wells, then the plate was centrifuged at 2000 rpm for 30 seconds; • e. The reaction buffer was used to prepare 5 mM $3-NAD and 2 mM PGF2α, respectively, which were mixed at 1:1 by volume to obtain a substrate mixture, 10 μL of the substrate mixture was taken and added to the test wells, positive control wells and blank control wells to start the reaction; • f. The fluorescence signal value (Ex/Em=340/450) of each well was detected continuously by using a multifunctional microplate reader.
• a) Continuous fluorescence signal values were analyzed by using the “kinetic calculations-slope calculation method” in the PHERAstar Data analysis software to obtain the slope of each test well; • b) The inhibition rate % was calculated by using the following formula: inhibition rate %=[1−(slope of test well-signal value of positive control well)/(signal value of blank control well-average signal value of positive control well)]×100%. • c) Calculation of IC50 and plotting of inhibition rate-dose curves: IC50 values were calculated by fitting compound concentrations and corresponding inhibition rates with a nonlinear regression (dose response-variable slope) via using GraphPad Prism 6.0. The formula was shown below:
Y=Bottom+(Top−Bottom)/(1+10^((Log IC50−X)*HillSlope)), wherein X is a log value of a concentration of the compound, and Y is inhibition rate %.

Sequence of 15-PGDH (P15428 whole entry): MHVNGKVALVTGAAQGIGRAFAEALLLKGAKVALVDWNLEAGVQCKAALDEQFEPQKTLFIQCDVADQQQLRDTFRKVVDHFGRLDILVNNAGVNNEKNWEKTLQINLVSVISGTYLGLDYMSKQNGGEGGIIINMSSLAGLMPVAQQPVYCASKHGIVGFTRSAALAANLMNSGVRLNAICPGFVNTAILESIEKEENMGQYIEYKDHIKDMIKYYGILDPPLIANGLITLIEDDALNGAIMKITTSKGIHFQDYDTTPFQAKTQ

Row | SMILES | IC50
1 | O=C(c1sc2nc(-c3ccccc3)cnc2c1C1CC1)N1CCCCC1 [Example 1, (7-cyclopropyl-3-phenylthieno[2,3-b]pyrazin-6-yl)(piperidin-1-yl)methanone] | < 3 nM
2 | Cc1cc(-c2cnc3c(C4CC4)c(C(=O)N4CCCCC4)sc3n2)ccn1 [Example 2, (7-cyclopropyl-3-(2-methylpyridin-4-yl)thieno[2,3-b]pyrazin-6-yl)(piperidin-1-yl)methanone] | 3 to 10 nM
3 | O=C(c1sc2nc(-c3cnc(N4CCOCC4)nc3)cnc2c1C1CC1)N1CCCCC1 [Example 3] | < 3 nM
4 | O=C(c1sc2nc(-c3ccnc(F)c3)cnc2c1C1CC1)N1CCCCC1 [Example 4] | 3 to 10 nM
5 | COc1ncc(-c2cnc3c(C4CC4)c(C(=O)N4CCCCC4)sc3n2)cn1 [Example 5] | < 3 nM
6 | O=C(c1sc2nc(-c3cccnc3)cnc2c1C1CC1)N1CCCCC1 [Example 7] | 3 to 10 nM
7 | Cc1noc(C)c1-c1cnc2c(C3CC3)c(C(=O)N3CCCCC3)sc2n1 [Example 8] | 3 to 10 nM
8 | O=C(c1sc2nc(-c3ccncc3)cnc2c1C1CC1)N1CCCCC1 [Example 9] | 3 to 10 nM
9 | Cn1cc(-c2cnc3c(C4CC4)c(C(=O)N4CCCCC4)sc3n2)cn1 [Example 10] | 3 to 10 nM
10 | N#Cc1ccc(-c2cnc3c(C4CC4)c(C(=O)N4CCCCC4)sc3n2)cn1 [Example 11] | 10 to 20 nM
11 | O=C(c1sc2nc(-c3ccc4nccn4c3)cnc2c1C1CC1)N1CCCCC1 [Example 12] | < 3 nM
12 | O=C(c1sc2nc(-c3ccc4ncsc4c3)cnc2c1C1CC1)N1CCCCC1 [Example 13] | 3 to 10 nM
13 | O=C(c1sc2nc(-c3ccc4c(c3)OCO4)cnc2c1C1CC1)N1CCCCC1 [Example 14] | 3 to 10 nM
14 | O=C(c1sc2nc(-c3c[nH]c4ccccc34)cnc2c1C1CC1)N1CCCCC1 [Example 16] | 10 to 20 nM
15 | O=C(c1sc2nc(-c3cccs3)cnc2c1C1CC1)N1CCCCC1 [Example 17] | 3 to 10 nM
16 | Cn1cc(-c2cnc3c(C4CC4)c(C(=O)N4CCCCC4)sc3n2)ccc1=O [Example 18] | < 3 nM
17 | O=C(c1sc2nc(-c3ccc(N4CCOCC4)nc3)cnc2c1C1CC1)N1CCCCC1 [Example 19] | 3 to 10 nM
18 | O=C(c1sc2nc(-c3ccc4nccnc4c3)cnc2c1C1CC1)N1CCCCC1 [Example 20] | 3 to 10 nM
19 | O=C(c1sc2nc(-c3ccc4c(c3)OCCO4)cnc2c1C1CC1)N1CCCCC1 [Example 21] | 3 to 10 nM
20 | O=C(c1sc2nc(-c3cncnc3)cnc2c1C1CC1)N1CCCCC1 [Example 22] | < 3 nM
21 | COc1ccc(-c2cnc3c(C4CC4)c(C(=O)N4CCCCC4)sc3n2)cn1 [Example 23] | 10 to 20 nM
22 | Cc1ccc(-c2cnc3c(C4CC4)c(C(=O)N4CCCCC4)sc3n2)cn1 [Example 24] | < 3 nM
23 | O=C(c1sc2nc(-c3ccnc(C(F)(F)F)c3)cnc2c1C1CC1)N1CCCCC1 [Example 25] | 10 to 20 nM

Row | SMILES | IC50
24 | COc1cc(-c2cnc3c(C4CC4)c(C(=O)N4CCCCC4)sc3n2)ccn1 [Example 26] | < 3 nM
25 | O=C(c1sc2nc(-c3ccc(F)nc3)cnc2c1C1CC1)N1CCCCC1 [Example 27] | 3 to 10 nM
26 | Nc1cc(-c2cnc3c(C4CC4)c(C(=O)N4CCCCC4)sc3n2)ccn1 [Example 28] | 3 to 10 nM
27 | O=C(c1sc2nc(-c3cncs3)cnc2c1C1CC1)N1CCCCC1 [Example 29] | 3 to 10 nM
28 | CN(C)c1ncc(-c2cnc3c(C4CC4)c(C(=O)N4CCCCC4)sc3n2)cn1 [Example 30] | 3 to 10 nM
29 | Nc1ncc(-c2cnc3c(C4CC4)c(C(=O)N4CCCCC4)sc3n2)cn1 [Example 31] | < 3 nM
30 | CN1Cc2cc(-c3cnc4c(C5CC5)c(C(=O)N5CCCCC5)sc4n3)ccc2C1=O [Example 32] | < 3 nM
31 | N#Cc1c(C(=O)N2CCCCC2)sc2nc(-c3ccccc3)cnc12 [Example 33, 3-phenyl-6-(piperidine-1-carbonyl)thieno[2,3-b]pyrazine-7-carbonitrile] | 10 to 20 nM
32 | COc1ncc(-c2cnc3c(C#N)c(C(=O)N4CCCCC4)sc3n2)cn1 [Example 34, 3-(2-methoxypyrimidin-5-yl)-6-(piperidine-1-carbonyl)thieno[2,3-b]pyrazine-7-carbonitrile] | 10 to 20 nM
33 | N#Cc1c(C(=O)N2CCCCC2)sc2nc(-c3ccc(N4CCOCC4)nc3)cnc12 [Example 43] | 10 to 20 nM
34 | N#Cc1c(C(=O)N2CCCCC2)sc2nc(-c3ccc4nccnc4c3)cnc12 [Example 45] | 3 to 10 nM
35 | N#Cc1c(C(=O)N2CCCCC2)sc2nc(-c3ccc4nccn4c3)cnc12 [Example 47] | 3 to 10 nM
36 | N#Cc1c(C(=O)N2CCCCC2)sc2nc(-c3ccc4ncsc4c3)cnc12 [Example 48] | 3 to 10 nM
37 | COc1ccc(-c2cnc3c(C#N)c(C(=O)N4CCCCC4)sc3n2)cn1 [Example 50] | 10 to 20 nM
38 | Cc1ccc(-c2cnc3c(C#N)c(C(=O)N4CCCCC4)sc3n2)cn1 [Example 51] | 10 to 20 nM
39 | COc1cc(-c2cnc3c(C#N)c(C(=O)N4CCCCC4)sc3n2)ccn1 [Example 55] | 10 to 20 nM
40 | N#Cc1c(C(=O)N2CCCCC2)sc2nc(-c3cncs3)cnc12 [Example 56] | 3 to 10 nM
41 | Cc1cc(-c2cnc3c(C#N)c(C(=O)N4CCCCC4)sc3n2)ccn1 [Example 57] | 3 to 10 nM
42 | CN(C)c1ncc(-c2cnc3c(C#N)c(C(=O)N4CCCCC4)sc3n2)cn1 [Example 58] | 3 to 10 nM
43 | N#Cc1c(C(=O)N2CCCCC2)sc2nc(-c3cnc(N4CCOCC4)nc3)cnc12 [Example 59] | 3 to 10 nM
44 | N#Cc1c(C(=O)N2CCCCC2)sc2nc(-c3cnc(N)nc3)cnc12 [Example 60] | 3 to 10 nM
45 | N#Cc1c(C(=O)N2CCCCC2)sc2nc(-c3cncnc3)cnc12 [Example 61] | 3 to 10 nM
46 | CN1Cc2cc(-c3cnc4c(C#N)c(C(=O)N5CCCCC5)sc4n3)ccc2C1=O [Example 62] | 3 to 10 nM

Row | SMILES | IC50
47 | O=C(c1sc2nc(-c3ccccc3)cnc2c1C(F)(F)F)N1CCCCC1 [Example 63, (3-phenyl-7-(trifluoromethyl)thieno[2,3-b]pyrazin-6-yl)(piperidin-1-yl)methanone] | 3 to 10 nM
48 | COc1ncc(-c2cnc3c(C(F)(F)F)c(C(=O)N4CCCCC4)sc3n2)cn1 [Example 64, (3-(2-methoxypyrimidin-5-yl)-7-(trifluoromethyl)thieno[2,3-b]pyrazin-6-yl)(piperidin-1-yl)methanone] | 3 to 10 nM
49 | O=C(c1sc2nc(-c3ccnc(F)c3)cnc2c1C(F)(F)F)N1CCCCC1 [Example 65] | 3 to 10 nM
50 | N#Cc1ccc(-c2cnc3c(C(F)(F)F)c(C(=O)N4CCCCC4)sc3n2)cn1 [Example 67] | 10 to 20 nM
51 | Cn1cc(-c2cnc3c(C(F)(F)F)c(C(=O)N4CCCCC4)sc3n2)cn1 [Example 68] | 3 to 10 nM
52 | O=C(c1sc2nc(-c3cccs3)cnc2c1C(F)(F)F)N1CCCCC1 [Example 69] | < 3 nM
53 | Cc1noc(C)c1-c1cnc2c(C(F)(F)F)c(C(=O)N3CCCCC3)sc2n1 [Example 70] | 10 to 20 nM
54 | Cn1cc(-c2cnc3c(C(F)(F)F)c(C(=O)N4CCCCC4)sc3n2)ccc1=O [Example 71] | 3 to 10 nM
55 | O=C(c1sc2nc(-c3ccncc3)cnc2c1C(F)(F)F)N1CCCCC1 [Example 72] | 3 to 10 nM
56 | O=C(c1sc2nc(-c3cccnc3)cnc2c1C(F)(F)F)N1CCCCC1 [Example 74] | < 3 nM
57 | O=C(c1sc2nc(-c3ccc4c(c3)OCCO4)cnc2c1C(F)(F)F)N1CCCCC1 [Example 76] | 10 to 20 nM
58 | O=C(c1sc2nc(-c3ccc4nccn4c3)cnc2c1C(F)(F)F)N1CCCCC1 [Example 77] | 3 to 10 nM
59 | O=C(c1sc2nc(-c3ccc4ncsc4c3)cnc2c1C(F)(F)F)N1CCCCC1 [Example 78] | 10 to 20 nM
60 | O=C(c1sc2nc(-c3ccc(F)nc3)cnc2c1C(F)(F)F)N1CCCCC1 [Example 79] | 3 to 10 nM
61 | COc1ccc(-c2cnc3c(C(F)(F)F)c(C(=O)N4CCCCC4)sc3n2)cn1 [Example 80] | 3 to 10 nM
62 | Nc1cc(-c2cnc3c(C(F)(F)F)c(C(=O)N4CCCCC4)sc3n2)ccn1 [Example 83] | 3 to 10 nM
63 | COc1cc(-c2cnc3c(C(F)(F)F)c(C(=O)N4CCCCC4)sc3n2)ccn1 [Example 85] | 3 to 10 nM
64 | O=C(c1sc2nc(-c3cncs3)cnc2c1C(F)(F)F)N1CCCCC1 [Example 86] | 3 to 10 nM
65 | Cc1cc(-c2cnc3c(C(F)(F)F)c(C(=O)N4CCCCC4)sc3n2)ccn1 [Example 87] | < 3 nM
66 | CN(C)c1ncc(-c2cnc3c(C(F)(F)F)c(C(=O)N4CCCCC4)sc3n2)cn1 [Example 88] | 10 to 20 nM
67 | O=C(c1sc2nc(-c3cnc(N4CCOCC4)nc3)cnc2c1C(F)(F)F)N1CCCCC1 [Example 89] | 10 to 20 nM
